Like-named read-outs stand apart in the source and are kept apart here.
Tests used:
[1] = target: T1, Human acetycholinesterase (hAChE) (Homo sapiens, UniProt P22303); experiment: hAChE inhibition assay, modified Ellman's colorimetric protocol; assay type: biochemical
T1 construct: purchased Sigma
Procedure: (§1) Human acetycholinesterase (hAChE) activities were determined with a slight modification of Ellman's colorimetric protocol. […] The bioactivity was determined by evaluating the hydrolysis rate of acetylthiocholine iodide (ATCI, 0.1 mM) with the final volume of 300 μL with a phosphate buffer of 180 μL of 100 mM, pH 7.3 and 2 mM DTNB 0.09U of hAChE (Sigma) were applied to this solution and pre-incubated for 45 min at room temperature. The 96-well microplate was read in a microplate reader (Ensight Multimode Reader, Perkin Elmer) at 412 nm after adding DTNB and ATCI. The enzyme kinetic parameters were determined by incubating the substrate at multiple concentrations with or without test inhibitor by double-reciprocal (Lineweaver- Burk) plots in 0.09U of hAChE. From the Lineweaver-Burk plots, the inhibition mechanisms were measured graphically. The kinetics were performed using a series of concentrations of 4a to 4e and substrate AChI at 412 nm. The quantitative datas were expressed as mean ± SD results from three independent experiments. GraphPad Prism version 6.01 (GraphPad Software Inc., San Diego, USA) was used for regression analysis to calculate the IC50 values and the enzyme kinetic parameters (Km, Vmax). The IC50 and enzyme kinetics values (Vmax and Km) were calculated by this formula IC50 Y = min + max-min/1+(X/EC50)^−Hillslops. . Vmax and Km Y = Vmax∗X/(Km + X).
(§2) An evaluation of the therapeutic potential in the treatment of AD of target compounds 4a, 4b, 4c, 4d and 4e were measured for AChE inhibitory activity using the Ellman method. To find the inhibitory effects, the test compounds were incubated with multiple concentrations of human AChE. […] These compounds were designed from the trans-tephrostachin. It was isolated and structuraly characterized from Tephrosia purpurea in our previous studies. To investigate the mechanism of trans-tephrostachin derivatives against AChE, kinetic studies were conducted for all compounds. Such plots presented a secondary plot of Km/Vmax versus test compound concentrations for the Km and Vmax. […] Compound 4a is a trans-tephrostachin which was isolated and structurally characterized previously.

[2] = target: T1, Human acetycholinesterase (hAChE); experiment: hAChE enzyme kinetics, Lineweaver-Burk and secondary plots; assay type: biochemical; conditions: for Vmax: hAChE in presence of inhibitor, without inhibitor 0.34 ± 0.01; for Inhibition type: hAChE, Lineweaver-Burk plots
Procedure: as §1, §2

AChE = test system: AChE; parameters: method as in PMID 17962731; conditions: AChE inhibition; cited from earlier work
[3] = human AChE, Ellman method, average of three sets of assays, read-out: IC50 Concentration
[4] = human AChE, secondary plot of Km/Vmax versus compound concentration, read-out: Ki

T1 sequence (P22303 32-614): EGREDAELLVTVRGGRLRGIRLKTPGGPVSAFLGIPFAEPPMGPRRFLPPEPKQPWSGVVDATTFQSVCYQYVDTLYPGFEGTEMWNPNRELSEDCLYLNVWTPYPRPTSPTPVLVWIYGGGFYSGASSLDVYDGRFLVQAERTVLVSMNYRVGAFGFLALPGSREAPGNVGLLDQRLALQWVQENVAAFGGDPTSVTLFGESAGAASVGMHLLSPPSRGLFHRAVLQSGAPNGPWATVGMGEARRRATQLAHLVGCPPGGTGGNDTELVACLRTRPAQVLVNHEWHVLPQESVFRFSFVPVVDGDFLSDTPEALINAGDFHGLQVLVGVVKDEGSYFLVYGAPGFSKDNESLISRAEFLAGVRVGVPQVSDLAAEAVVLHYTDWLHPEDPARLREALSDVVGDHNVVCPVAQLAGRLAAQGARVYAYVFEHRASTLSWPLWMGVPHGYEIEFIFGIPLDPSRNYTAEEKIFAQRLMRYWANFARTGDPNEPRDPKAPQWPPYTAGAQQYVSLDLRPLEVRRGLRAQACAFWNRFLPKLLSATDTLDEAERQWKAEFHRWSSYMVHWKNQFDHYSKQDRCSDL

Row | SMILES | IC50 [1, 3] [µM] | Vmax [2] | Inhibition type [2] | Ki [2, 4] [µM] | IC50 [1] [µM] | Ki [2] [µM] | IC50 (AChE) [µM]
1 | COc1cc(OC)c2c(=O)cc(-c3ccccc3)oc2c1/C=C/C(C)(C)O [Compound 4a, (E)-8-(3-hydroxy-3-methylbut-1-en-1-yl)-5,7-dimethoxy-2-phenyl-4H-chromen-4-one] | 35 ± 1.2 | 0.13 ± 0.08 | mixed type inhibition | 29.3 ± 7.2 | – | – | –
2 | CCOc1cc(OCC)c2c(=O)cc(-c3ccccc3)oc2c1/C=C/C(C)(C)O [Compound 4b, (E)-5,7-diethoxy-8-(3-hydroxy-3-methylbut-1-en-1-yl)-2-phenyl-4H-chromen-4-one] | 35.6 ± 2.8 | 0.34 ± 0.01 | Competitive inhibition | 206 ± 12 | – | – | –
3 | CC(C)(O)/C=C/c1c(OC(=O)c2ccccc2)cc(OC(=O)c2ccccc2)c2c(=O)cc(-c3ccccc3)oc12 [Compound 4c, (E)-8-(3-hydroxy-3-methylbut-1-en-1-yl)-4-oxo-2-phenyl-4H-chromene-5,7-diyl dibenzoate] | 10.6 ± 2.8 | 0.14 ± 0.1 | mixed type inhibition | 46.4 ± 9.5 | – | – | –
4 | CC(C)(O)/C=C/c1c(OC(=O)c2ccc([N+](=O)[O-])cc2)cc(OC(=O)c2ccc([N+](=O)[O-])cc2)c2c(=O)cc(-c3ccccc3)oc12 [Compound 4d, (E)-8-(3-hydroxy-3-methylbut-1-en-1-yl)-4-oxo-2-phenyl-4H-chromene-5,7-diyl bis(4-nitrobenzoate)] | – | 0.15 ± 0.01 | mixed type inhibition | – | 10.3 | 8.25 ± 1.7 | –
5 | CC(=O)Oc1cc(OC(C)=O)c2c(=O)cc(-c3ccccc3)oc2c1/C=C/C(C)(C)O [Compound 4e, (E)-8-(3-hydroxy-3-methylbut-1-en-1-yl)-4-oxo-2-phenyl-4H-chromene-5,7-diyl diacetate] | 28.1 ± 2.1 | 0.36 ± 0.2 | Competitive inhibition | 198 ± 10.1 | – | – | –
6 | C[n+]1c2n(c(=O)c3ccccc31)CCc1c-2[nH]c2ccccc12 [dehydroevodiamine] | – | – | – | – | – | – | 37.8
8 | C[C@@H]1O[C@@H](Oc2c(-c3ccc(O)c(O)c3)oc3cc(O)cc(O)c3c2=O)[C@H](O)[C@H](O)[C@H]1O [quercitrin] | – | – | – | – | – | – | 66.9
9 | O=C(/C=C/c1ccc(O)cc1)OC[C@H]1O[C@@H](Oc2c(-c3ccc(O)cc3)oc3cc(O)cc(O)c3c2=O)[C@H](O)[C@@H](O)[C@@H]1O [tiliroside] | – | – | – | – | – | – | 23.5

Source: paper PMC7501440 (Heliyon, 2020)
